Experimental data published in patent publication US10968209B2, “TRPV4 antagonist” (GlaxoSmithKline Intellectual Property (No.2) Limited, priority 2016, dated 2021).

Target: T1, human TRPV4 (Homo sapiens, UniProt Q9HBA0)
T1 construct: expressed in transfected cells; host or cells: HEK293 MSRII cells (BacMam transduction)
Experiment: Ligand-gated assay: FLIPR assay for human TRPV4 expressed in HEK293 MSRII cells
Type: cell-based
Details: HEK293 MSRII cells transduced with BacMam virus expressing human TRPV4; Fluo-4 calcium signal; agonist at EC80; read-out: activity (inhibition of Agonist Compound-induced calcium signal)
Description: FLIPR Assay for Human TRPV4 Expressed in HEK293 MSRII Cells
TRPV4 channel activation results in an influx of divalent and monovalent cations including calcium. The resulting changes in intracellular calcium were monitored using a calcium specific fluorescent dye Fluo-4 (MDS Analytical Technologies). HEK293 MSRII cells (human embryonic kidney 293 cells stably expressing the macrophage scavenger receptor class II) transduced with BacMam virus expressing the human TRPV4 gene at 1% final concentration were plated in a 384 well poly-D lysine coated plate (15,000 cells/well in 50 μL culture medium containing DMEM/F12 with 15 mM HEPES, 10% FBS, 1% Penicillin-Streptomycin and 1% L-glutamine). Cells were incubated for 24-72 hours at 37° C. and 5% CO2. Culture medium was then aspirated using a Tecan plate-washer and replaced with 20 μL/well of dye loading buffer: HBSS, 500 μM Brilliant Black (MDS Analytical Technologies), and 2 μM Fluo-4 AM. Dye loaded plates were then incubated in the dark at room temperature for 1-1.5 hours. […] Calcium signals were measured using FLIPR^TETRA (MDS Analytical Technologies) or FLIPR384 (MDS Analytical Technologies) and the inhibition of Agonist Compound-induced calcium signal by the test compound was determined.

T1 sequence (Q9HBA0 whole entry): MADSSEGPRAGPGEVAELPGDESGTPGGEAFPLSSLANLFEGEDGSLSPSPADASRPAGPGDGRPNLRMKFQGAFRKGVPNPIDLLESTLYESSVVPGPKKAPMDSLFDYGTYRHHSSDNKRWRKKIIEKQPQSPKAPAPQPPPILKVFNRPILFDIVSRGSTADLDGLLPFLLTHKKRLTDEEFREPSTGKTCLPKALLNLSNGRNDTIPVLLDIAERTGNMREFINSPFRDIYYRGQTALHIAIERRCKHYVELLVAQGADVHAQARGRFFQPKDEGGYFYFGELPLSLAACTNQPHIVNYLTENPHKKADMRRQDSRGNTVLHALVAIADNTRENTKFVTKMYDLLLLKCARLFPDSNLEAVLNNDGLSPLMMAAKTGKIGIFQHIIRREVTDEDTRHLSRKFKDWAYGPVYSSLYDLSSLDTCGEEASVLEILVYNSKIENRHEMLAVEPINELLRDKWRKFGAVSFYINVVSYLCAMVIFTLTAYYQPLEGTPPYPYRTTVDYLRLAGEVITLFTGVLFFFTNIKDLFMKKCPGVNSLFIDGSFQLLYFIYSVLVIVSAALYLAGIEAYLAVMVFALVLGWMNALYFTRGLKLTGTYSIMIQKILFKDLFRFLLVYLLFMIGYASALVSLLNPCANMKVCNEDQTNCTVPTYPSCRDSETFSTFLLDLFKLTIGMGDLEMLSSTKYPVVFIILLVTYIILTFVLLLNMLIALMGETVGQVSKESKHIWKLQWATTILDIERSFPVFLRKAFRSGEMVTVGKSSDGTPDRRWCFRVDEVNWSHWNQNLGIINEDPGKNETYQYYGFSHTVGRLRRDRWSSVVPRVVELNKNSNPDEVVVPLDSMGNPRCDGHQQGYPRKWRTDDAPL

IC50: 6.3 nM
Structure (SMILES): N#Cc1ccc2ncn(C[C@@]3(O)CCC[C@@]4(CN(c5cnc(C6CC6)cn5)C(=O)O4)C3)c2c1 [Compound A, 1-(((5S,7R)-3-(5-cyclopropylpyrazin-2-yl)-7-hydroxy-2-oxo-1-oxa-3-azaspiro[4.5]decan-7-yl)methyl)-1H-benzo[d]imidazole-6-carbonitrile]
